Results from ChEMBL document CHEMBL5137050, “Hematopoietic Progenitor Kinase 1 in Tumor Immunology: A Medicinal Chemistry Perspective” (J Med Chem, 2022).

How the values were obtained:
[1] = biological target: T1, Mitogen-activated protein kinase kinase kinase kinase 1 (Homo sapiens, UniProt Q92918); experiment: Inhibition of full-length phosphorylated HPK1 (unknown origin)
[2] = biological target: T1, Mitogen-activated protein kinase kinase kinase kinase 1; experiment: Inhibition of full-length unphosphorylated HPK1 (unknown origin) by scintillation proximity assay
[3] = biological target: T2, Tyrosine-protein kinase ZAP-70 (Homo sapiens, UniProt P43403); experiment: Inhibition of ZAP70 (unknown origin)
T2 sequence (P43403 whole entry): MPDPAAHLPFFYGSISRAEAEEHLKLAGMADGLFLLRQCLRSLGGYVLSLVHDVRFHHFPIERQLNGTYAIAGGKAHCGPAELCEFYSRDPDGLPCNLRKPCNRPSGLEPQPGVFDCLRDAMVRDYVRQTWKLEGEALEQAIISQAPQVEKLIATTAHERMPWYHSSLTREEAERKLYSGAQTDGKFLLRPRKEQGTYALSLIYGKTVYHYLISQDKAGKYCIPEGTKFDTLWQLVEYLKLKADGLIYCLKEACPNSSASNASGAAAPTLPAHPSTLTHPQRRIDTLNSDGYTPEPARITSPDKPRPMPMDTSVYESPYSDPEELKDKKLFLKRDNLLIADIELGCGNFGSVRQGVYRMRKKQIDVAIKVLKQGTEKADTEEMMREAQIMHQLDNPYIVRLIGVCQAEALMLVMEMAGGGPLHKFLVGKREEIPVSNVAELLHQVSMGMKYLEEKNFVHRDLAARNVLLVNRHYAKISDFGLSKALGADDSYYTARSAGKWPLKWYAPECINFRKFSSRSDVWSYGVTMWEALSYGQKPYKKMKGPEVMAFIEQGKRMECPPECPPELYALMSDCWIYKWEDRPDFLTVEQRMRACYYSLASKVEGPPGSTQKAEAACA

[4] = biological target: T3, Tyrosine-protein kinase ITK/TSK (Homo sapiens, UniProt Q08881); experiment: Inhibition of ITK (unknown origin)
T3 sequence (Q08881 whole entry): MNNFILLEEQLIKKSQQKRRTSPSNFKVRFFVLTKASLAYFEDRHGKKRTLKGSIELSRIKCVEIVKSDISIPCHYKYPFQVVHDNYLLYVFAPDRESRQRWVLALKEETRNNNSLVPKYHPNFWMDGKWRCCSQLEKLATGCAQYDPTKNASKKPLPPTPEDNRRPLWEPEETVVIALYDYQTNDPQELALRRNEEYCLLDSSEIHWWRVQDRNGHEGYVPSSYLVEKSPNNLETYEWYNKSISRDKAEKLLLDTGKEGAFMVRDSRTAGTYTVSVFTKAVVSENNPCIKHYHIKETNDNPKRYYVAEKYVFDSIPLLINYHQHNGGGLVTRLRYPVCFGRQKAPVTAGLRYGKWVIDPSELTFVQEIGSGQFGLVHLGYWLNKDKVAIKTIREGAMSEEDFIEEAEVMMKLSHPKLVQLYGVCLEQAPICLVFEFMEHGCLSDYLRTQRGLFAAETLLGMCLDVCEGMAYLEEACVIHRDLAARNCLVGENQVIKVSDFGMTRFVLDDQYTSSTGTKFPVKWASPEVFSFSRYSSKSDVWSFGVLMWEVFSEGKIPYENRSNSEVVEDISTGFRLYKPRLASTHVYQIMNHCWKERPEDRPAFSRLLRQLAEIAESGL

[5] = biological target: Tyrosine-protein kinase Lck (Homo sapiens, UniProt P06239); experiment: Inhibition of LCK (unknown origin)
Sequence of Tyrosine-protein kinase Lck (P06239 whole entry): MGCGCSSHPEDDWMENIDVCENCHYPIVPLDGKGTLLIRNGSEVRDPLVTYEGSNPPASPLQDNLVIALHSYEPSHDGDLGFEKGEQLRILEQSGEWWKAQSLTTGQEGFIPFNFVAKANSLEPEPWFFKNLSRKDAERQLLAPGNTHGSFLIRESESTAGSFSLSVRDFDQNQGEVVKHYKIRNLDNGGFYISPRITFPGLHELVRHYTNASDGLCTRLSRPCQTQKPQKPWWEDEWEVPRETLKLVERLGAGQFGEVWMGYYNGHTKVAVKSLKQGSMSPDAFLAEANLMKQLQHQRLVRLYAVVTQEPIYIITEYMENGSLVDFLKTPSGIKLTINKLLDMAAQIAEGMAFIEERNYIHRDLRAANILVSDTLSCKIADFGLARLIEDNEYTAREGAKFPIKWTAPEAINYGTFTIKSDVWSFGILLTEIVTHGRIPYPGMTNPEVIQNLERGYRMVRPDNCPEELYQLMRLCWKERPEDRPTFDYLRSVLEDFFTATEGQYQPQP

[6] = biological target: T1, Mitogen-activated protein kinase kinase kinase kinase 1; experiment: Inhibition of HPK1 in human Jurkat E6.1 cells assessed as inhibition of SLP76 phosphorylation treated for 4 hrs by HTRF assay; format: cell-based
[7] = biological target: T1, Mitogen-activated protein kinase kinase kinase kinase 1; experiment: Inhibition of HPK1 (unknown origin) preincubated for 15 mins measured after 90 mins by ADP-Glo kinase assay

T1 sequence (Q92918 whole entry): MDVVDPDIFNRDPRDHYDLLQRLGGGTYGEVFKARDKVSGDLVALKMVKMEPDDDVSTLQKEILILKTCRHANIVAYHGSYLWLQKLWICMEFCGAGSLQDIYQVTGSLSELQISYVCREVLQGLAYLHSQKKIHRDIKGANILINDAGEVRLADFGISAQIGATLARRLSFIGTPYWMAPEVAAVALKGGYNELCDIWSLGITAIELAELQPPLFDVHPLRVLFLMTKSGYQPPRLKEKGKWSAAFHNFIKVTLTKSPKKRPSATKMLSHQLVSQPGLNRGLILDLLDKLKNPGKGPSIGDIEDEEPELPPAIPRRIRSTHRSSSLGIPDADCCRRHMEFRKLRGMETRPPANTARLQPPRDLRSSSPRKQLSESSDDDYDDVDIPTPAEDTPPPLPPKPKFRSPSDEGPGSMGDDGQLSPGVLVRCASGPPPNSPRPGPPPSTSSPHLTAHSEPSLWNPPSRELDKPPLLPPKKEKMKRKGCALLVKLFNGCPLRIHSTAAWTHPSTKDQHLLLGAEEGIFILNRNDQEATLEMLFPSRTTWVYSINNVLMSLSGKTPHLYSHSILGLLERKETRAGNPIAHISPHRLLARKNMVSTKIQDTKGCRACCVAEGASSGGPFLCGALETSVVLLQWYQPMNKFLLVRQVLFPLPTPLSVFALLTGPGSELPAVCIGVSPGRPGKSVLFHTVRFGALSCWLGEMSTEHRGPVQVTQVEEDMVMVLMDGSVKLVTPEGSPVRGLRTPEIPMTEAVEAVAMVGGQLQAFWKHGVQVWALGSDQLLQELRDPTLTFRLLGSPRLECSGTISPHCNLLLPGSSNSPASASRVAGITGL

Row | IC50 [1] [µM] | IC50 [2] [µM] | IC50 [3] [µM] | IC50 [4] [µM] | IC50 [5] [µM] | IC50 [6] [µM] | IC50 [7] [µM] | Compound
1 | 29 | 1.2 | > 49.5 | > 49.5 | > 49.5 |  |  | Cc1[nH]c2nnc(C)n2c(=O)c1CC(=O)Nc1ncc(Cc2ccccc2F)s1
2 |  |  |  |  |  | < 1 | < 0.1 | CN1CCC(c2ncc(-c3cnc(N)c(OCc4cccc(C#CC(C)(C)O)c4)c3)s2)CC1
